In patent EP4311580A1, “AMINOACID-FLUORIDE SALTS FOR MOUTH HYGIENE” (Schäfer, Rolf, priority 2022, dated 2024):
Where two headings read alike, the source gives them in different places.

Tests used:
MG-63 osteoblast cells [1] = experiment: Time to confluence of MG-63 osteoblast cells in tissue culture with fluoride compounds in the medium; settings: for Time to confluence / Time to confluence (days): compounds at 1400ppm fluoride in cell growth media, 5x10cm tissue culture flasks, control without fluoride 4-5 days; for effect on osteoblast cells in culture (lysis / influence on growth / toxicity) / inhibition of cell growth: MG-63 osteoblasts; for effect on osteoblast cells in culture (lysis / influence on growth / toxicity): 1400ppm fluoride, result in words; for inhibition of cell growth: 1400ppm fluoride concentration, relative to control
MG-63 osteoblast cells [2] = system: MG-63 osteoblast cells

Row | Compound | Time to confluence (MG-63 osteoblast cells [1]) | effect on osteoblast cells in culture (lysis / influence on growth / toxicity) (MG-63 osteoblast cells [1]) | other results
1 | CCOC(=O)[C@H](C)N.F.N [Alanine-O-ethylester-ammoniumfluoride] | 5 to 6 days | – | –
2 | CCCCCCCCC=CCCCCCCCCN.F [Dectaflur, 9-octadecenylamine-hydrofluoride, reference compound] | – | lysing (dissolving the membrane) osteoblast cells | Time to confluence (days) (MG-63 osteoblast cells [1]): cell lysis
3 | F.F.N.N.N[C@@H](Cc1c[nH]cn1)C(=O)O [Histidine-ammonium-difluoride] | 7 to 8 days | – | –
4 | CCOC(=O)[C@@H](N)CCCCN [Lysine-O-ethylester-ε-ammoniumdifluoride] | – | – | Time to confluence (MG-63 osteoblast cells [2]): 5 to 6 days
5 | NCCCCC(N)C(=O)O (stereo not shown) [Lysine-ε-ammonium-fluoride] | – | no influence of growth on osteoblasts | Time to confluence (MG-63 osteoblast cells [2]): 4 to 5 days; inhibition of cell growth (MG-63 osteoblast cells [1]): no inhibition at all
6 | CCCCCCCCCCCCCCCCCCN(CCO)CCCN(CCO)CCO [Olaflur, reference compound] | – | lysing (dissolving the membrane) osteoblast cells | Time to confluence (days) (MG-63 osteoblast cells [1]): cell lysis
7 | CCCCCCCCCCCCOS(=O)(=O)[O-].[Na+] [Sodium laurylsulfate (SDS), Sodium laurylsulfate, reference compound] | – | lysing (dissolving the membrane) osteoblast cells | Time to confluence (days) (MG-63 osteoblast cells [2]): cell lysis
8 | NC(Cc1c[nH]c2ccccc12)C(=O)O (stereo not shown) [Tryptophan-N-ammonium-mono-hydrofluoride] | 5 to 6 days | – | –
9 | CCOC(=O)[C@@H](N)Cc1c[nH]c2ccccc12 [Tryptophan-O-ethylester-N,N'-ammoniumdifluoride] | 8 to 9 days | – | –
10 | CCOC(=O)[C@@H](N)Cc1ccc(O)cc1.F.N [Tyrosine-O-ethylester-ammoniumfluoride] | 5 to 6 days | – | –
11 | Decalysine-ε-ammonium-decafluoride | 8 to 9 days | – | inhibition of cell growth (MG-63 osteoblast cells [1]): 40-50%
12 | Potassium fluoride [reference compound] | – | – | Time to confluence (MG-63 osteoblast cells [2]): 6 to 7 days
13 | sodium fluoride [reference compound] | – | – | inhibition of cell growth (MG-63 osteoblast cells [1]): 20%
